According to US10144758B2, “Deuterated bile acids” (Metselex, Inc., priority 2013, dated 2018):

What was measured:
[1] = tested on: primary rat hepatocytes; test: Cytotoxicity of compound alone (ApoTox-Glo Triplex / LDH Cytotoxicity Detection Kit); type: cell-based
Description: Primary rat hepatocytes were isolated from male rats (100-150 grams) by collagenase perfusion (as described by Solá S, et al., 2003, Journal of Biological Chemistry 278: 48831-48838)). Briefly, rats were anesthetized with phenobarbital sodium (100 mg/kg body weight) injected into the peritoneal cavity. After administration of heparin (200 units/kg body weight) in the tail vein, the animal's abdomen was opened and the portal vein exposed and cannulated. The liver was then perfused at 37° C. in situ with a calcium-free Hanks' Balanced Salt Solution (HBSS) for about 10 minutes, and then with 0.05% collagenase type IV in calcium-present HBSS for another 10 minutes. Hepatocyte suspensions were obtained by passing collagenase-digested livers through 125 μm gauze and washing cells in Complete William's E medium (William's E medium, Sigma-Aldrich Corp., St Louis, Mo., USA) supplemented with 26 mM sodium bicarbonate, 23 mM HEPES, 0.01 units/mL insulin, 2 mM L-glutamine, 10 nM dexamethasone, 100 units/mL penicillin, and 10% heat-inactivated fetal bovine serum (Invitrogen Corp., Carlsbad, Calif., USA). Viable primary rat hepatocytes were enriched by low-speed centrifugation at 200 g for 3 minutes. Cell viability was determined by trypan blue exclusion and was typically 80-85%. After isolation, hepatocytes were resuspended in Complete William's E medium and plated on Primaria™ tissue culture dishes (BD Biosciences, San Jose, Calif., USA) at 5×10^4 cells/cm^2. Cells were maintained at 37° C. in a humidified atmosphere of 5% CO2 for 6 hours to allow attachment. Plates were then washed with medium to remove dead cells and incubated in Complete William's E medium supplemented with either 100-400 μM UDCA (Sigma-Aldrich Corp.), 100-400 μM deuterated UDCA (compound 5), or no addition (control). Eight hours after pre-incubation, cells were exposed to 1 nM recombinant human TGF-β1 (R&D Systems Inc., Minneapolis, Minn., USA) for 36 hours, or to 50 or 100 μM DCA for 16 hours before processing for cell viability, cytotoxicity and apoptosis assays.
(§1) The ApoTox-Glo™ Triplex Assay (Promega Corp., Madison, Wis., USA) was used to evaluate cell viability, cytotoxicity and caspase-3/7 activity, according to the manufacturer's protocol, using a GloMax+ Multi Detection System (Promega Corp.). General cell death was also evaluated using the lactate dehydrogenase (LDH) Cytotoxicity Detection Kit^PLUS (Roche Diagnostics GmbH, Mannheim, Germany), following the manufacturer's instructions.

[2] = tested on: primary rat hepatocytes; test: TGF-β1-induced cytotoxicity, LDH release; type: cell-based; conditions: 1 nM TGF-β1 36 hours; 100 μM compound; FIG. 8A
Description: Primary rat hepatocytes were isolated from male rats (100-150 grams) by collagenase perfusion (as described by Solá S, et al., 2003, Journal of Biological Chemistry 278: 48831-48838)). Briefly, rats were anesthetized with phenobarbital sodium (100 mg/kg body weight) injected into the peritoneal cavity. After administration of heparin (200 units/kg body weight) in the tail vein, the animal's abdomen was opened and the portal vein exposed and cannulated. The liver was then perfused at 37° C. in situ with a calcium-free Hanks' Balanced Salt Solution (HBSS) for about 10 minutes, and then with 0.05% collagenase type IV in calcium-present HBSS for another 10 minutes. […] Cell viability was determined by trypan blue exclusion and was typically 80-85%. […]
as §1, with “instructions. […]” for “instructions.”

7,8-[^2H]-3α,7α-dihydroxy-5β-cholan-24-oic acid/7-[^2H]-3α,7α-dihydroxy-5β-cholan-24-oic acid [Compound 5]
cytotoxicity compared with UDCA ([1]; 400 μM, 24 and 44 hours): comparable to UDCA cytotoxicity | increase in cytotoxicity ([1]; 400 μM, 24 hours): ~2% | increase in cytotoxicity ([1]; 400 μM, 44 hours): ~15% | signs of cytotoxicity ([1]; 100 and 200 μM): no relevant signs of cytotoxicity | more effective than UDCA at inhibiting TGF-β1-induced LDH release [2]: about 10%
